{"source": "paper PMC4474691", "about": "“Leukemia-Associated Mutations in Nucleophosmin Alter Recognition by CRM1: Molecular Basis of Aberrant Transport” (PLoS ONE, 2015)", "key": {"wild type CRM1": {"test_system": "wild type CRM1", "test": "Fluorescence anisotropy binding assay, wild type CRM1", "set-up": "species or system mouse", "settings": "TFP-PKI 50 nM, 25°C, 20 mM Tris/HCl pH 7.4, wild type CRM1, compared with CRM1^HA", "text": "For recombinant production in E. coli, we subcloned wild type NPM, as well as mutants A and E, as N-terminal (His)10 –ZZ tagged constructs in pTG-A20 vector [22]. The original clone of wild type mouse CRM1, N-terminally fused to a His—ZZ tag was a kind gift of Dr. Dirk Görlich (Max Planck Institute for Biophysical Chemistry, Göttingen). We generated the high affinity CRM1 mutant (CRM1^HA) from a clone provided by Dr. Murray Stewart (MRC Laboratory of Molecular Biology, Cambridge). […]\nFluorescence anisotropy binding assays\nTo estimate CRM1 binding affinities for NES motifs we monitored binding with a fluorescence-polarization assay based on previously described approaches. The increase in fluorescence anisotropy of TFP/YFP when the TFP/YFP-NES construct (50 nM) binds to 0–60 μM CRM1 (either CRM^HA or wild type) was recorded at 25°C with a 8100 SLM-Aminco spectrofluorometer in buffer 20 mM Tris/HCl, pH 7.4, 50 mM NaCl, 5 mM DTT, 2 mM MgCl2. […]\nFig 4 Binding of CRM1 to TFP-NES constructs. […] Fraction bound was calculated from the relative increase in fluorescence anisotropy of TFP (λexc 463 nm, λem 500 nm). […]\nWe next used the TFP-(NES) constructs to monitor CRM1^HA binding to each motif, using the change in fluorescence anisotropy upon complex formation as a readout (Fig 4B), as previously described. […]"}, "CRM1^HA [1]": {"molecular_target": "T1, CRM1^HA (Mus musculus, UniProt Q6P5F9, L431A/V430A/V432A)", "T1 construct": "His-ZZ (cleaved yes); made in house; host or cells: Escherichia coli BL21-CodonPlus (DE3)", "T1 sequence (Q6P5F9 1-1062 V430A/L431A/V432A limits assumed)": "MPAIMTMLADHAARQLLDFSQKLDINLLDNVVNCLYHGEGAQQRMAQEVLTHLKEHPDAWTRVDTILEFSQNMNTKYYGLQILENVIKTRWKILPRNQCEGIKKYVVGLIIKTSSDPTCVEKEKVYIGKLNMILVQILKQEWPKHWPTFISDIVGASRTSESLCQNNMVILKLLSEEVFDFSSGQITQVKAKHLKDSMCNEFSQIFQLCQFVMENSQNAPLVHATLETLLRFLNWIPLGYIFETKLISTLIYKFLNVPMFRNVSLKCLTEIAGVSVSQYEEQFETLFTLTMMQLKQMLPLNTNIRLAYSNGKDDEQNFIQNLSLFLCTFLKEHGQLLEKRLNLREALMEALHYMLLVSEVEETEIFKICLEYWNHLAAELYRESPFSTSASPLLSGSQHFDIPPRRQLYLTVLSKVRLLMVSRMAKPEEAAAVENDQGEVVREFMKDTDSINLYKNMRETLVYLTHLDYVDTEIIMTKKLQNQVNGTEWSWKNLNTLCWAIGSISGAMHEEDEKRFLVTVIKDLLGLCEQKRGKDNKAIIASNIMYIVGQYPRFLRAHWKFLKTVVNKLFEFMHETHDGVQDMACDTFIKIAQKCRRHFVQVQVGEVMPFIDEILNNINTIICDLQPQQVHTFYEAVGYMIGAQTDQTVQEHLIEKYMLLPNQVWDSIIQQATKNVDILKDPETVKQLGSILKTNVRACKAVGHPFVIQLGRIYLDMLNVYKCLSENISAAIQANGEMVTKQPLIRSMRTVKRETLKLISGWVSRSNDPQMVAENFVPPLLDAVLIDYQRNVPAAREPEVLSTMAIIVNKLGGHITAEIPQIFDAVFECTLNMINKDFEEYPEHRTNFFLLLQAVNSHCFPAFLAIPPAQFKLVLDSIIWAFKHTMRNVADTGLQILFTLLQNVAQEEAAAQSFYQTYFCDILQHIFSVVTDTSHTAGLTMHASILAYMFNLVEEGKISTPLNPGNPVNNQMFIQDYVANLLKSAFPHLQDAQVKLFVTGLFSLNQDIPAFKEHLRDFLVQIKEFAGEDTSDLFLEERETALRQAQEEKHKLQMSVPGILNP", "test": "Ni-NTA chromatography of TFP-NES / CRM1^HA complex formation", "assay_type": "binding", "settings": "2.5 mg His-tagged TFP construct on 1 mL Histrap FF, 1 mL CRM1^HA 18 μM; 50 mM Tris/HCl pH 8.0, 500 mM NaCl; SDS-PAGE", "text": "Although the relative potency of the NESs acquired by the different NPM mutants has been compared using an in vivo export assay, their CRM1-binding affinities have not yet been determined. We cloned the NESs of mutant A and E as C-terminal fusions to a teal fluorescent protein (TFP) (Fig 4A). As a reference, we generated an equivalent construct with the well-characterized NES of protein kinase inhibitor (PKI). We first tested the binding of CRM1^HA to the TFP-NES constructs using Ni-NTA chromatography. His-tagged TFP constructs were bound to the Ni-NTA column, and an excess of untagged CRM1^HA was then injected (S4 Fig).\nSupplementary file pone.0130610.s004.tif: S4 Fig TFP-NES / CRM1^HA complex formation shown by Ni-NTA chromatography. 2.5 mg of the His-tagged TFP construct were loaded on a 1 mL Histrap FF (GE Healthcare) in buffer 50 mM Tris/HCl, pH 8.0, 500 mM NaCl, 1 mM TCEP, 2 mM MgCl2, 5% glycerol, containing 15 mM imidazole. After washing with the same buffer, 1 mL of CRM1^HA at 18 μM was injected at 0.1 mL/min flow rate. Unbound CRM1^HA was collected, and then bound proteins were eluted with 2 M imidazole. SDS-PAGE of elution fractions: Unbound (free) CRM1^HA and the fraction eluted with imidazole, containing both the His-tagged TFP construct along with bound CRM1^HA. (TIF) Click here for additional data file."}, "CRM1^HA [2]": {"molecular_target": "T1, CRM1^HA", "settings": "previously described, CRM1^HA binding to YFP-PKI(NES); cited from earlier work", "text": "We next used the TFP-(NES) constructs to monitor CRM1^HA binding to each motif, using the change in fluorescence anisotropy upon complex formation as a readout (Fig 4B), as previously described."}, "CRM1^HA [3]": {"molecular_target": "T1, CRM1^HA", "test": "Isothermal titration calorimetry, CRM1^HA / NES", "assay_type": "binding", "settings": "ITC, NES ligand (35–180 μM) titrated onto CRM1^HA (2–14 μM), 20°C, 20 mM HEPES pH 7.4, 50 mM NaCl, 1 mM TCEP, 1 mM MgCl2; independent binding sites model; read-out: KD", "description": "Isothermal titration calorimetry (ITC)\nITC measurements were carried out using a VIP-ITC MicroCalorimeter (MicroCal, Inc., Northampton, MA). TFP and YFP constructs, as well as CRM1^HA, were dialyzed in a buffer containing 20 mM HEPES, pH 7.4, 50 mM NaCl, 1 mM TCEP, 1 mM MgCl2, and degassed prior to the experiment. Untagged peptides (AS: QDLCLAVEEVSLRK, AL: EAIQDLCLAVEEVSLRK, ES: QDLWQSLAQVSLRK and EL: EAIQDLWQSLAQVSLRK), N-acetylated and 95% pure, were purchased from Proteogenix (Schiltigheim, France) and resuspended in the ITC buffer. Measurements were performed at 20°C. TFP-NES, YFP-NES or NES peptides at 35–180 μM were titrated onto CRM1^HA at 2–14 μM. Injections of 6 μL were performed at 320 seconds interval (the first injection always was of 1 μL and is not considered in data analysis). To determine the thermodynamic parameters of NPM / importin interaction, importin α, importin Δα or importin α/β at 45–60 μM were titrated onto NPM (1–1.2 μM pentamer) in 50 mM Tris/HCl, pH 7.5, 100 mM NaCl, 2 mM TCEP, and 10% glycerol. […] “Reverse” titrations, where 20–30 μM NPM was titrated onto 7–10 μM of the different importins were also performed and yielded similar results.\nThe reaction heat of each injection is related to the calorimetric enthalpy of binding, ΔH^0. The binding isotherms, ΔH^0 vs. molar ratio, were analyzed with an independent binding sites model using MicroCal Origin software. The fit of the binding curve yields the binding constant KA (KD = 1/KA) and the enthalpy ΔH^0 of the binding reaction. The Gibbs free energy of binding ΔG^0 and the entropy ΔS^0 are determined from the basic thermodynamic expressions: ΔG^0 = -RTlnKA = ΔH^0−TΔS^0, where R and T are the gas constant and the absolute temperature, respectively.\nFig 5 Analysis of CRM1^HA/TFP-NES interaction by ITC. Isothermal titration of CRM1^HA with TFP-mutE(NES). […] The titration of negative control TFP-Cter (180 μM) onto CRM1^HA (14 μM) (circles) is also shown for comparison."}, "importin α/β": {"molecular_target": "importin α/β", "settings": "importin α/β binding of nucleoplasmin; cited from earlier work", "text": "Our study has explored the molecular determinants of both NPM export (CRM1/NES) and import (importin α/β/NLS). […] This lower affinity could be related to the fact that NPM NLS includes one basic residue less in the major cluster of the bipartite motif than NP NLS. […] This, together with the very low affinity of CRM1 for wild type NPM and significant avidity for nucleolar comp ..."}, "CRM1": {"test_system": "CRM1", "settings": "cited from earlier work", "text": "Two sequence motifs in the core domain of NPM (residues 42–61 and 94–102) (Fig 1) have been investigated as candidate NESs. In addition, we have detected a further putative NES in the C-terminal region (see below). However, it is still unclear to what extent any of these sequences represents NPM physiological NESs."}}, "note": "Where two headings read alike, the source gives them in different places.", "data": [{"substance": "LALKLAGLDI [TFP-PKI(NES)]", "values": [{"measurement": "binding of wild type CRM1", "setting": "wild type CRM1", "value": "much weaker than that of CRM1^HA"}, {"measurement": "CRM1^HA binding in Ni-NTA chromatography", "setting": "CRM1^HA [1]", "value": "stronger than its binding to TFP- mutE(NES)"}]}, {"substance": "YFP-PKI(NES): previously described YFP-PKI(NES) construct (LALKLAGLDI; fusion to YFP (carrier omitted); linker stated to be 2 residues longer than in TFP construct) [reference compound]", "values": [{"measurement": "Kd", "setting": "CRM1^HA [2]", "value": 25, "unit": "nM"}, {"measurement": "Kd", "setting": "CRM1^HA [3]", "value": "18 ± 3", "unit": "nM"}]}, {"substance": "nucleoplasmin: homologous protein nucleoplasmin", "values": [{"measurement": "Kd", "setting": "importin α/β", "value": 57, "unit": "nM"}]}, {"substance": "residues 42–61: candidate NES motif in the core domain of NPM (LSLRTVSLGAGAKDELHIVE; UniProt P06748 42-61, looked up, fragment)", "values": [{"measurement": "binding to CRM1", "setting": "CRM1", "value": "no binding to CRM1"}]}]}
